Experimental data taken from publication PMC5538625, “Perception of root‐active CLE peptides requires CORYNE function in the phloem vasculature” (EMBO Reports, 2017).
Like-named read-outs stand apart in the source and are kept apart here. Where no end group is shown, it is not given here.

Tests used:
[1] = tested on: Arabidopsis Col-0 seedlings (primary root); conditions: cited from earlier work
Experimental: page 3: EMBO reports - Peer Review Process File - EMBO-2016-43535 including a report from the same group (Kinoshita et al, 2007 Plant Cell Physiol 48:1821; Whitford et al, 2008 PNAS 105:18625; Depuydt et al. 2013 PNAS 110:7074) where CLE6 peptides exert the root shortening activity only at a very high concentration (10 µM). Results on CLE8, CLE16, CLE17, CLE20 and CLE22 are also different from the previous report (Depuydt et al. 2013). […] Please indicate the meaning of the asterisks in column "Col-0" in Figure 2B, "***a" and "***b" in Figure 2C, describe all the peptide sequences used in this study and re-confirm if the results are correct and reproducible. The details are the following.” ….and subordinate comments.

BAM3 = conditions: ref Shinohara et al., 2012; cited from earlier work
Description: page 6: EMBO reports - Peer Review Process File - EMBO-2016-43535 of both. […] Or alternatively to measure mRNA level by qRT-PCR. This will at least resolve if it's transcriptional regulation or not. 3. One way to bolster their statement about CRN's BAM3 regulation would be to do a simple complementation. If authors' already generated CRN::CRN in crn mutant background, we highly recommend that the authors use this line as well. BAM3-BAM3-CITRINE construct are introduced ...

[2] = tested on: bam3 mutant seedlings (primary root); conditions: compared with WT; ref Depuydt et al., 2013; cited from earlier work
Description: (§1) “6. We'd also like the authors to answer or discuss following aspects in the discussion part.” “6-1. How do you explain the insensitivity of crn to all CLE peptides? Does it control expression of CLV as well?” At this point we can only speculate on this. As we highlight in the discussion, maybe the expression of other, yet to be identified CLE receptors in the root also depends on CR ...

BAM1 = conditions: CLE9gp arabinosylated, CLE9p non-arabinosylated; ref Shinohara et al., 2012; cited from earlier work
Description: as §1

[3] = target: IDA peptide (Arabidopsis thaliana) (UniProt Q8LAD7); conditions: cited from earlier work
IDA peptide (Arabidopsis thaliana), sequence (Q8LAD7 27-77): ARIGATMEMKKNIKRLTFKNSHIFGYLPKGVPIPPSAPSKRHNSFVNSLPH

[4] = target: IDA peptide (Arabidopsis thaliana) (UniProt Q8LAD7); conditions: cited from earlier work; remark: listed apart in the source
[5] = tested on: Arabidopsis Col-0 seedlings (primary root); test: Root growth assay, wild type (Col-0); type: in vivo, Arabidopsis thaliana; conditions: 50 nM peptide, 9-day-old seedlings, primary root length, n ≥ 12
Experimental: Plant tissue culture, plant transformation, and common molecular biology procedures such as genomic DNA isolation, genotyping, sequencing, and peptide or inhibitor treatments were performed according to standard procedures as previously described 9, 19, 44, 65.
All mutant and transgenic lines were in the Arabidopsis Columbia‐0 (Col‐0) background. The following previously described mutant alleles were used throughout: brx‐2, bam3‐2, brx‐2 bam3, clv2‐1, serk1‐1 and serk1‐3, serk2‐1, serk3‐1, serk4‐1, serk5‐1 9, 47, 59, 66, 67, 68. The crn loss‐of‐function mutant allele (crn‐10) carries a single nucleotide insertion in front of the 7th codon, which leads to a frameshift and three subsequent premature stop codons after amino acid 10 52.

HAESA, sequence (P47735 15-621): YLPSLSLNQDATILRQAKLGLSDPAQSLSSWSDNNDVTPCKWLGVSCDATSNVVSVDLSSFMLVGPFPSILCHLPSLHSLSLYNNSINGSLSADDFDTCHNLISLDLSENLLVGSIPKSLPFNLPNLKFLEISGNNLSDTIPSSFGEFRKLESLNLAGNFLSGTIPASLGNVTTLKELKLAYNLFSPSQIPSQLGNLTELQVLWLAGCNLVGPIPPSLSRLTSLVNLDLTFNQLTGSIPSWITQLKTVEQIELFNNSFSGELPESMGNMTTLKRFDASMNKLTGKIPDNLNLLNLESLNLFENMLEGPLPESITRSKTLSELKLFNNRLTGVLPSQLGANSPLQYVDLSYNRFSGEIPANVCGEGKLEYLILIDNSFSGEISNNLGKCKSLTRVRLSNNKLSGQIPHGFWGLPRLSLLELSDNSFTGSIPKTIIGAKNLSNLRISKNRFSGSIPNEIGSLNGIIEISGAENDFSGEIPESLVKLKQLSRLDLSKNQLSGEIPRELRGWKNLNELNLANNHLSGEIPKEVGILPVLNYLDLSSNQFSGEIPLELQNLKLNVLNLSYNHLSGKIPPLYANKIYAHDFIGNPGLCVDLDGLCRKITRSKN

Substance: CLE6: CLE6 peptide (earlier reports; not assayed) (RVSPGGPDPQHH; ends and bridges not checked; UniProt Q8S8N3 70-81, looked up)
- concentration needed for root shortening activity ([1]; referee's comment, ref Kinoshita et al, 2007, Whitford et al, 2008, Depuydt et al. 2013): 10 µM
- root growth suppression in words ([1]; tissue culture, nM to low μM concentrations): not root-active

Substance: CLE9: CLE9 (earlier reports) (RLVPSGPNPLHN; ends and bridges not checked; UniProt Q9FZE4 109-120, looked up)
- binding to BAM3, in words (BAM3): BAM3 has been shown to have a binding activity to CLE9
- root response of bam3 mutants [2]: not suppressed in bam3 mutant plants

Substance: CLE9gp: arabinosylated CLE9 (RLVPSGPNPLHN; ends and bridges not checked; also: arabinosylated, place not given here; UniProt Q9FZE4 109-120, looked up)
- Kd (BAM1): 2.2 nM

Substance: CLE9p: non-arabinosylated CLE9 (RLVPSGPNPLHN; ends and bridges not checked; UniProt Q9FZE4 109-120, looked up)
- Kd (BAM1): 1.8 nM

Substance: HAESA (from UniProt P47735)
- Kd [3]: 350 nM
- Kd [4]: 20000 nM

Substance: RKVKTGSNPLHN [CLE20, CLE20: …]
- impact on root growth [5]: significant, reproducible impact on root growth

Substance: RKVPNGPDPIHN [CLE25, CLE25: …]
- impact on root growth [5]: significant, reproducible impact on root growth

Substance: RLVHTGPNPLHN [CLE16, CLE16: …]
- impact on root growth [5]: significant, reproducible impact on root growth

Substance: RLVPKGPNPLHN [CLE14, CLE14: …]
- impact on root growth [5]: significant, reproducible impact on root growth

Substance: RLVPSGPNPLHH [CLE13, CLE13: …]
- impact on root growth [5]: significant, reproducible impact on root growth

Substance: RLVPSGPNPLHN [CLE9/10, CLE9/10: …]
- impact on root growth [5]: significant, reproducible impact on root growth
